# Data as given in PubChem BioAssay (NCI).
#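 These data come from cells grown in 96-well plates and exposed to compound for 48 hours at five concentrations. Definition used: TGI = concentration required for complete inhibition of growth.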
# Key:
# Test in all cases: NCI-60 cell line screen, 48 h
# SF-295 CNS = test system: SF-295 CNS
# SW-620 colon = test system: SW-620 colon
# LOX IMVI melanoma = test system: LOX IMVI melanoma
# OVCAR-4 ovarian = test system: OVCAR-4 ovarian
# HL-60(TB) leukemia = test system: HL-60(TB) leukemia
# A498 renal = test system: A498 renal
# EKVX NSCLC = test system: EKVX NSCLC
# HCT-116 colon = test system: HCT-116 colon
# SR leukemia = test system: SR leukemia
# MDA-MB-231 breast = test system: MDA-MB-231 breast
# MDA-MB-435 = test system: MDA-MB-435
# UACC-62 melanoma = test system: UACC-62 melanoma
# 786-0 renal = test system: 786-0 renal
# NCI/ADR-RES ovarian = test system: NCI/ADR-RES ovarian
# CAKI-1 renal = test system: CAKI-1 renal
# NCI-H23 lung = test system: NCI-H23 lung
# A549 NSCLC = test system: A549 NSCLC
# MCF7 breast = test system: MCF7 breast
# OVCAR-8 ovarian = test system: OVCAR-8 ovarian
# RXF 393 renal = test system: RXF 393 renal
# KM12 colon = test system: KM12 colon
# SK-OV-3 ovarian = test system: SK-OV-3 ovarian
# T-47D breast = test system: T-47D breast
# HOP-62 NSCLC = test system: HOP-62 NSCLC
# TK-10 renal = test system: TK-10 renal
# MDA-N = test system: MDA-N
# SK-MEL-5 melanoma = test system: SK-MEL-5 melanoma
# MOLT-4 leukemia = test system: MOLT-4 leukemia
# HT29 colon = test system: HT29 colon
# SN12C renal = test system: SN12C renal
# ACHN renal = test system: ACHN renal
# PC-3 prostate = test system: PC-3 prostate
# SK-MEL-28 melanoma = test system: SK-MEL-28 melanoma
# BT-549 breast = test system: BT-549 breast
# OVCAR-3 ovarian = test system: OVCAR-3 ovarian
# DU-145 prostate = test system: DU-145 prostate
# K-562 leukemia = test system: K-562 leukemia
# SK-MEL-2 melanoma = test system: SK-MEL-2 melanoma
# HOP-92 NSCLC = test system: HOP-92 NSCLC
# SNB-19 CNS = test system: SNB-19 CNS
# OVCAR-5 ovarian = test system: OVCAR-5 ovarian
# HS 578T breast = test system: HS 578T breast
# HCT-15 colon = test system: HCT-15 colon
# NCI-H522 lung = test system: NCI-H522 lung
# UO-31 renal = test system: UO-31 renal
# MALME-3M melanoma = test system: MALME-3M melanoma
# CCRF-CEM leukemia = test system: CCRF-CEM leukemia
# SF-268 CNS = test system: SF-268 CNS
# NCI-H460 lung = test system: NCI-H460 lung
# UACC-257 melanoma = test system: UACC-257 melanoma
# RPMI-8226 leukemia = test system: RPMI-8226 leukemia
# U251 CNS = test system: U251 CNS
# COLO 205 colon = test system: COLO 205 colon
# SF-539 CNS = test system: SF-539 CNS
# IGROV1 ovarian = test system: IGROV1 ovarian
# M14 melanoma = test system: M14 melanoma
# SNB-75 CNS = test system: SNB-75 CNS
# HCC-2998 colon = test system: HCC-2998 colon
# NCI-H226 lung = test system: NCI-H226 lung
smiles,measurement,setting,value
COC(=O)c1cc(C)n(CN(Cn2nc(C(=O)OC)cc2C)c2ccccc2)n1,TGI,SF-295 CNS,> 100 µM
same,TGI,SW-620 colon,> 100 µM
same,TGI,LOX IMVI melanoma,42.3 µM
same,TGI,OVCAR-4 ovarian,> 100 µM
same,TGI,HL-60(TB) leukemia,47.5 µM
same,TGI,A498 renal,> 100 µM
same,TGI,EKVX NSCLC,> 100 µM
same,TGI,HCT-116 colon,40.9 µM
same,TGI,SR leukemia,25.5 µM
same,TGI,MDA-MB-231 breast,> 100 µM
same,TGI,MDA-MB-435,> 100 µM
same,TGI,UACC-62 melanoma,88 µM
same,TGI,786-0 renal,61 µM
same,TGI,NCI/ADR-RES ovarian,94.7 µM
same,TGI,CAKI-1 renal,> 100 µM
same,TGI,NCI-H23 lung,69.6 µM
same,TGI,A549 NSCLC,> 100 µM
same,TGI,MCF7 breast,93.5 µM
same,TGI,OVCAR-8 ovarian,47.9 µM
same,TGI,RXF 393 renal,44.4 µM
same,TGI,KM12 colon,> 100 µM
same,TGI,SK-OV-3 ovarian,> 100 µM
same,TGI,T-47D breast,88.3 µM
same,TGI,HOP-62 NSCLC,> 100 µM
same,TGI,TK-10 renal,> 100 µM
same,TGI,MDA-N,> 100 µM
same,TGI,SK-MEL-5 melanoma,> 100 µM
same,TGI,MOLT-4 leukemia,33.4 µM
same,TGI,HT29 colon,36 µM
same,TGI,SN12C renal,> 100 µM
same,TGI,ACHN renal,44.6 µM
same,TGI,PC-3 prostate,> 100 µM
same,TGI,SK-MEL-28 melanoma,> 100 µM
same,TGI,BT-549 breast,> 100 µM
same,TGI,OVCAR-3 ovarian,> 100 µM
same,TGI,DU-145 prostate,> 100 µM
same,TGI,K-562 leukemia,60.4 µM
same,TGI,SK-MEL-2 melanoma,> 100 µM
same,TGI,HOP-92 NSCLC,> 100 µM
same,TGI,SNB-19 CNS,> 100 µM
same,TGI,OVCAR-5 ovarian,> 100 µM
same,TGI,HS 578T breast,> 100 µM
same,TGI,HCT-15 colon,47.2 µM
same,TGI,NCI-H522 lung,> 100 µM
same,TGI,UO-31 renal,55.2 µM
same,TGI,MALME-3M melanoma,> 100 µM
same,TGI,CCRF-CEM leukemia,54.2 µM
same,TGI,SF-268 CNS,> 100 µM
same,TGI,NCI-H460 lung,> 100 µM
same,TGI,UACC-257 melanoma,> 100 µM
same,TGI,RPMI-8226 leukemia,44.6 µM
same,TGI,U251 CNS,> 100 µM
same,TGI,COLO 205 colon,32 µM
same,TGI,SF-539 CNS,36.3 µM
same,TGI,IGROV1 ovarian,> 100 µM
same,TGI,M14 melanoma,> 100 µM
OC/C=C/[C@H](OCc1ccccc1)[C@H](/C=C/CO)OCc1ccccc1,TGI,SF-295 CNS,> 100 µM
same,TGI,SW-620 colon,> 100 µM
same,TGI,LOX IMVI melanoma,47.4 µM
same,TGI,SNB-75 CNS,> 100 µM
same,TGI,OVCAR-4 ovarian,95 µM
same,TGI,A498 renal,> 100 µM
same,TGI,EKVX NSCLC,> 100 µM
same,TGI,HCT-116 colon,> 100 µM
same,TGI,SR leukemia,39.6 µM
same,TGI,MDA-MB-231 breast,> 100 µM
same,TGI,MDA-MB-435,> 100 µM
same,TGI,UACC-62 melanoma,> 100 µM
same,TGI,786-0 renal,> 100 µM
same,TGI,NCI/ADR-RES ovarian,> 100 µM
same,TGI,CAKI-1 renal,> 100 µM
same,TGI,NCI-H23 lung,> 100 µM
same,TGI,A549 NSCLC,> 100 µM
same,TGI,MCF7 breast,> 100 µM
same,TGI,OVCAR-8 ovarian,> 100 µM
same,TGI,RXF 393 renal,> 100 µM
same,TGI,KM12 colon,> 100 µM
same,TGI,HCC-2998 colon,> 100 µM
same,TGI,SK-OV-3 ovarian,> 100 µM
same,TGI,T-47D breast,88.8 µM
same,TGI,NCI-H226 lung,> 100 µM
same,TGI,HOP-62 NSCLC,> 100 µM
same,TGI,TK-10 renal,> 100 µM
same,TGI,MDA-N,> 100 µM
same,TGI,SK-MEL-5 melanoma,> 100 µM
same,TGI,MOLT-4 leukemia,40 µM
same,TGI,HT29 colon,59.9 µM
same,TGI,SN12C renal,> 100 µM
same,TGI,ACHN renal,> 100 µM
same,TGI,PC-3 prostate,> 100 µM
same,TGI,SK-MEL-28 melanoma,> 100 µM
same,TGI,BT-549 breast,> 100 µM
same,TGI,OVCAR-3 ovarian,> 100 µM
same,TGI,DU-145 prostate,> 100 µM
same,TGI,K-562 leukemia,54.7 µM
same,TGI,SK-MEL-2 melanoma,> 100 µM
same,TGI,HOP-92 NSCLC,> 100 µM
same,TGI,SNB-19 CNS,85.9 µM
same,TGI,OVCAR-5 ovarian,> 100 µM
same,TGI,HS 578T breast,> 100 µM
same,TGI,HCT-15 colon,> 100 µM
same,TGI,NCI-H522 lung,> 100 µM
same,TGI,UO-31 renal,> 100 µM
same,TGI,MALME-3M melanoma,> 100 µM
same,TGI,CCRF-CEM leukemia,51.4 µM
same,TGI,SF-268 CNS,94.6 µM
same,TGI,NCI-H460 lung,> 100 µM
same,TGI,UACC-257 melanoma,> 100 µM
same,TGI,RPMI-8226 leukemia,42.8 µM
same,TGI,U251 CNS,69.1 µM
same,TGI,COLO 205 colon,> 100 µM
same,TGI,SF-539 CNS,> 100 µM
same,TGI,IGROV1 ovarian,> 100 µM
same,TGI,M14 melanoma,> 100 µM
CC(C)(C)OC(=O)NC(Cc1ccc(OCc2ccccc2)cn1)C(=O)N1CCCC1 (stereo not given),TGI,SF-295 CNS,> 100 µM
same,TGI,SW-620 colon,> 100 µM
same,TGI,LOX IMVI melanoma,> 100 µM
same,TGI,SNB-75 CNS,> 100 µM
same,TGI,HL-60(TB) leukemia,> 100 µM
same,TGI,A498 renal,> 100 µM
same,TGI,EKVX NSCLC,> 100 µM
same,TGI,HCT-116 colon,> 100 µM
same,TGI,SR leukemia,> 100 µM
same,TGI,MDA-MB-231 breast,> 100 µM
same,TGI,MDA-MB-435,> 100 µM
same,TGI,UACC-62 melanoma,> 100 µM
same,TGI,786-0 renal,> 100 µM
same,TGI,NCI/ADR-RES ovarian,91.8 µM
same,TGI,CAKI-1 renal,> 100 µM
same,TGI,NCI-H23 lung,> 100 µM
same,TGI,A549 NSCLC,> 100 µM
same,TGI,MCF7 breast,> 100 µM
same,TGI,OVCAR-8 ovarian,> 100 µM
same,TGI,RXF 393 renal,> 100 µM
same,TGI,KM12 colon,> 100 µM
same,TGI,HCC-2998 colon,> 100 µM
same,TGI,T-47D breast,> 100 µM
same,TGI,HOP-62 NSCLC,> 100 µM
same,TGI,TK-10 renal,> 100 µM
same,TGI,MDA-N,> 100 µM
same,TGI,SK-MEL-5 melanoma,41.9 µM
same,TGI,MOLT-4 leukemia,> 100 µM
same,TGI,HT29 colon,> 100 µM
same,TGI,SN12C renal,> 100 µM
same,TGI,ACHN renal,> 100 µM
same,TGI,PC-3 prostate,> 100 µM
same,TGI,SK-MEL-28 melanoma,> 100 µM
same,TGI,BT-549 breast,96.7 µM
same,TGI,OVCAR-3 ovarian,> 100 µM
same,TGI,DU-145 prostate,> 100 µM
same,TGI,K-562 leukemia,> 100 µM
same,TGI,SK-MEL-2 melanoma,> 100 µM
same,TGI,HOP-92 NSCLC,> 100 µM
same,TGI,SNB-19 CNS,> 100 µM
same,TGI,OVCAR-5 ovarian,> 100 µM
same,TGI,HS 578T breast,> 100 µM
same,TGI,HCT-15 colon,> 100 µM
same,TGI,NCI-H522 lung,> 100 µM
same,TGI,UO-31 renal,> 100 µM
same,TGI,MALME-3M melanoma,> 100 µM
same,TGI,CCRF-CEM leukemia,> 100 µM
same,TGI,SF-268 CNS,> 100 µM
same,TGI,NCI-H460 lung,> 100 µM
same,TGI,UACC-257 melanoma,> 100 µM
same,TGI,RPMI-8226 leukemia,> 100 µM
same,TGI,U251 CNS,> 100 µM
same,TGI,COLO 205 colon,> 100 µM
same,TGI,SF-539 CNS,67.4 µM
same,TGI,IGROV1 ovarian,> 100 µM
same,TGI,M14 melanoma,> 100 µM
